Biological target: human MRGPRD (Homo sapiens, UniProt Q8TDS7)
Experiment: MRGPRD antagonist activity, IP-One HTRF assay in CHO cells stably expressing human MRGPRD (versus 100 μM β-Alanine agonist)
Assay type: cell-based
Procedure, shortened: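 IP-1 HTRF read-out, with IC50 from HTRF ratio curves and percent antagonism relative to maximal efficacy (mean, SEM). Antagonists and agonist were co-incubated 1 h at 37 °C plus 1 h at room temperature on overnight-plated MRGPRD-CHO cells in LiCl-containing Tris buffer, pH 8.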

Sequence of human MRGPRD (Q8TDS7 whole entry): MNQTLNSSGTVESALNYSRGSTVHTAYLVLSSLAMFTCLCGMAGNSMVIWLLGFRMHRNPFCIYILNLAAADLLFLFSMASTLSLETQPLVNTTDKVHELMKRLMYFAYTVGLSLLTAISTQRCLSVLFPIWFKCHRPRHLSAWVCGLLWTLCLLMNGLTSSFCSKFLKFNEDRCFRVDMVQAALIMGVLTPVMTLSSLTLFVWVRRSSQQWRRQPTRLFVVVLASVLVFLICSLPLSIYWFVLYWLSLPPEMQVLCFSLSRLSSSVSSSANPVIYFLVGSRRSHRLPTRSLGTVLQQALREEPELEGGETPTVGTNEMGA

SMILES	IC50 [nM]
Cc1cc(NC(=O)c2nnn(-c3ccc(-c4c(C)nn(C)c4F)cc3)c2C2CC2)ccn1 [Compound 7-13]	< 100
Cc1cc(NC(=O)c2nnn(-c3ccc(-c4ccc(C#N)c(F)c4)cc3)c2C2CC2)cc(C)n1 [Compound 7-87]	100 to 500
CCc1ccc(C2(NC(=O)c3nnn(-c4ccc(-c5ccc(C#N)cc5)cc4)c3C3CC3)CC2)cn1 [Compound 18-2]	100 to 500
CCn1nccc1-c1ccc(-n2nnc(C(=O)Nc3ccncc3)c2C2CC2)cc1 [Compound 7-92]	100 to 500
CCn1cc(NC(=O)c2nnn(-c3ccc(-c4ccccc4)cc3)c2C2CC2)cn1 [Compound 14-45]	1000 to 3000
Cn1cc(-c2ccc(-n3nnc(C(=O)Nc4ccncc4)c3C3CC3)cc2)c(C(F)(F)F)n1 [Compound 7-217]	> 3000
Cc1cncc(C2(NC(=O)c3nnn(-c4ccc(-c5ccc(C#N)cc5)cc4)c3C3CC3)CC2)c1 [Compound 18-5]	1000 to 3000
Cc1cc(NC(=O)c2nnn(-c3ccc(-c4ccc(C#N)c(F)c4)cc3)c2C2CC2)ccn1 [Compound 15-2]	100 to 500
N#Cc1ccc(-c2ccc(-n3nnc(C(=O)NC4(c5cccnc5)CC4)c3C3CC3)cc2)cc1 [Compound 18-3, 1-(4′-cyano-[1,1′-biphenyl]-4-yl)-5-cyclopropyl-N-(1-(pyridin-3-yl)cyclopropyl)-1H-1,2,3-triazole-4-carboxamide]	500 to 1000
COc1ccc(-c2cccc(-n3nnc(C(=O)Nc4ccncc4)c3C3CC3)c2)c(C)c1 [Compound 7-287]	1000 to 3000
Cc1c(-c2ccc(-n3nnc(C(=O)Nc4ccncc4)c3C3CC3)cc2)c(C#N)nn1C [Compound 7-120]	500 to 1000
C[C@H](NC(=O)c1nnn(-c2ccc(-c3ccccc3)cc2)c1C1CC1)c1ccc(Cl)cc1 [Compound 14-28]	1000 to 3000
COc1ccccc1-c1ccc(-n2nnc(C(=O)Nc3ccncc3)c2C2CC2)c(C)c1 [Compound 7-244]	500 to 1000
CC(=O)c1cccc(-c2cc(-n3nnc(C(=O)Nc4ccncc4)c3C3CC3)ccc2F)c1 [Compound 7-245]	500 to 1000
O=C(N[C@H]1CCc2ccccc21)c1nnn(-c2ccc(-c3ccccc3)cc2)c1C1CC1 [Compound 14-57]	1000 to 3000
COc1cc(-n2nnc(C(=O)Nc3ccncc3)c2C2CC2)ccc1C [Compound 2-6]	1000 to 3000
Cc1nn(C2CCC2)c(C)c1-c1cccc(-n2nnc(C(=O)Nc3ccncc3)c2C2CC2)c1 [Compound 7-290]	1000 to 3000
CCn1cc(CNC(=O)c2nnn(-c3ccc(-c4ccc(C(N)=O)cc4)cc3)c2C2CC2)cn1 [Compound 17-8]	1000 to 3000
Cc1cc(-c2ccc(-n3nnc(C(=O)Nc4ccncc4)c3C3CC3)cc2)n[nH]1 [Compound 7-206]	1000 to 3000
O=C(Nc1ccncc1)c1nnn(CC(F)(F)F)c1C1CC1 [Compound 6-3]	500 to 1000
CCc1ccc(C2(NC(=O)c3nnn(-c4ccc(-c5c(C)nn(-c6ccccc6)c5C)cc4)c3C3CC3)CC2)cn1 [Compound 9-20]	100 to 500
CC(C)n1cc(-c2ccc(-n3nnc(C(=O)Nc4ccncc4)c3C3CC3)cc2)cn1 [Compound 7-175]	1000 to 3000
CC(C)Oc1cccc(-c2ccc(-n3nnc(C(=O)Nc4ccncc4)c3C3CC3)cc2)c1 [Compound 7-148]	500 to 1000
N#Cc1cnn(-c2ccccc2)c1-c1ccc(-n2nnc(C(=O)Nc3ccncc3)c2C2CC2)cc1 [Compound 7-216]	> 3000
CCn1cc(CNC(=O)c2nnn(-c3ccc(-c4c(C)nn(C)c4C)cc3)c2C2CC2)cn1 [Compound 15-19]	100 to 500
Cn1ncc(-c2ccc(-n3nnc(C(=O)Nc4ccncc4)c3C3CC3)cc2)c1-c1ccccc1 [Compound 7-144]	500 to 1000
COCc1cccc(-c2ccc(-n3nnc(C(=O)Nc4ccncc4)c3C3CC3)cc2)c1 [Compound 7-167]	1000 to 3000

SMILES	IC50 [nM]
Cc1nc(-c2ccc(-n3nnc(C(=O)Nc4ccncc4)c3C3CC3)cc2)sc1C [Compound 7-115]	500 to 1000
CC(C)(C)n1cc(-c2cccc(-n3nnc(C(=O)Nc4ccncc4)c3C3CC3)c2)cn1 [Compound 7-288]	1000 to 3000
Cc1ccc(CNC(=O)c2nnn(-c3ccc(-c4c(C)nn(C)c4C)cn3)c2C2CC2)cn1 [Compound 19-1]	500 to 1000
Cc1cc(CNC(=O)c2nnn(-c3ccc(-c4ccccc4)cc3)c2C2CC2)nn1C [Compound 14-55]	1000 to 3000
Cc1ccc(-n2nnc(C(=O)Nc3ccncc3)c2C2CC2)cc1F [Compound 2-13]	> 3000
Cc1cc(NC(=O)c2nnn(-c3ccc(-c4ccc(C#N)cc4)c(F)c3)c2C2CC2)ccn1 [Compound 7-235]	100 to 500
O=C(N[C@H]1CCC[C@@H]1O)c1nnn(-c2ccc(-c3ccccc3)cc2)c1C1CC1 [Compound 14-82]	> 3000
CCc1ccc(-c2ccc(-n3nnc(C(=O)Nc4ccncc4)c3C3CC3)cc2)cc1 [Compound 7-199]	1000 to 3000
Cc1ccc(CNC(=O)c2nnn(-c3ccc(-c4c(C)nn(-c5ccccc5)c4C)cc3)c2C2CC2)cn1 [Compound 15-22]	< 100
CCn1nc(C)c(-c2ccc(-n3nnc(C(=O)NCc4cccnc4)c3C3CC3)cc2)c1C [Compound 9-25]	100 to 500
Cc1cc(NC(=O)c2nnn(-c3ccc(-c4c(C)nn5cccnc45)cc3)c2C2CC2)ccn1 [Compound 10-3]	< 100
CCn1nc(C)c(-c2ccc(-n3nnc(C(=O)NCc4ccc(C(C)C)nc4)c3C3CC3)cc2)c1C [Compound 9-21]	100 to 500
O=C(Nc1ccncc1)c1nnn(-c2ccc(-c3ccc(C(F)(F)F)cc3)cc2)c1C1CC1 [Compound 7-66]	100 to 500
CC(=O)c1ccc(-c2ccc(-n3nnc(C(=O)Nc4ccncc4)c3C3CC3)cc2)cc1 [Compound 7-49]	100 to 500
O=C(Nc1ccncc1)c1nnn(-c2ccc(-c3n[nH]c4c3CCCC4)cc2)c1C1CC1 [Compound 7-94]	100 to 500
N#Cc1ccc(-c2ccc(-n3nnc(C(=O)NC4(c5cccnc5)CC4)c3C3CC3)c(F)c2)cc1 [Compound 22-2]	500 to 1000
O=C(Nc1ccncc1)c1nnn(-c2ccc(-c3ccc(C4CCC4)cc3)cc2)c1C1CC1 [Compound 7-127]	500 to 1000
Cc1cccc(-c2ccc(-n3nnc(C(=O)Nc4ccncc4)c3C3CC3)cc2)c1 [Compound 7-113]	500 to 1000
O=C(Nc1ccncc1)c1nnn(-c2ccc(-c3ccc(Cl)cc3)cc2)c1C1CC1 [Compound 7-90]	100 to 500
Cc1ccc(-n2nnc(C(=O)Nc3ccncc3)c2C2CCCC2)cc1 [Compound 3-6]	1000 to 3000
CCCn1cc(-c2ccc(-n3nnc(C(=O)Nc4ccncc4)c3C3CC3)cc2)cn1 [Compound 7-86]	100 to 500
Cn1ncc2c(NC(=O)c3nnn(-c4ccc(-c5ccccc5)cc4)c3C3CC3)ncnc21 [Compound 14-79]	> 3000
O=C(Nc1ccncc1)c1nnn(-c2ccc(-c3ccc(O)cc3)cc2)c1C1CC1 [Compound 7-58]	100 to 500
CCn1cc(C2(NC(=O)c3nnn(-c4ccc(-c5ccc(C#N)c(F)c5)cc4)c3C3CC3)CC2)cn1 [Compound 18-14]	100 to 500
CCn1nc(C)c(-c2ccc(-n3nnc(C(=O)NCc4cnccc4C)c3C3CC3)cc2)c1C [Compound 9-23]	100 to 500
CC(=O)c1cccc(-n2nnc(C(=O)Nc3ccncc3)c2C2CC2)c1 [Compound 2-9]	1000 to 3000
Cc1nn(-c2ccccc2)c(C)c1-c1ccc(-n2nnc(C(=O)Nc3ccncc3)c2C2CC2)cc1 [Compound 7-11]	< 100
